# According to patent US8207154B2, “Catatonic bacteriochlorophyll derivatives” (Yeda Research and Development Co., Ltd., priority 2005, dated 2012):
# Read-outs that look alike come from different tables or passages of the source.
# Test system: H5V cells
# Assay: Phototoxicity assay (PDT efficacy at two incubation times), neutral red survival
# Assay type: cell-based, mouse
# Conditions: for IC50: then 10 min illumination, 12 J/cm^2
# Procedure: H5V cells (40×10^3/well) were cultured in 96-well plates for 24 h to ˜80% confluence. To determine phototoxicity, the culture medium was replaced with 100 μl/well medium, in the absence or presence of 10^−8 to 10^−6 M sensitizer, and incubated in the dark for 15 min or 3 h in the culture incubator. The plates (PDT group) were then placed in the light field at room temperature and illuminated from the bottom for 10 min (800>λ>650 nm, 12 J/cm^2). After illumination, the medium was changed to fresh culture medium. The cultures were then placed in the culture incubator and cell survival was determined 24 h later, using the neutral red survival assay described below.
# Following 24 h post PDT the culture medium in the wells was replaced with 100 μl fresh medium containing 40 μg/ml neutral red. The plate was incubated for 1.5 h in a dark culture incubator. The medium was aspirated and the cells washed with 100 μl of solution containing 1% CaCl2 and 0.5% formaldehyde, which removes the unincorporated dye and fixes the cells to the substratum. The dye was then extracted from the cells into the supernatant upon addition of 100 μl 1% glacial acetic acid in 50% ethanol. After 1-2 min at room temperature, the optical density of the wells was determined in a microplate spectrophotometer using a 570 nm filter. After subtraction of assay blanks, net optical density was computed as the average value of triplicate determinations. Cell survival was calculated as the percent of the dye accumulated in the untreated control. To determine cell survival data was plotted against sensitizer concentration. These curves were then used to calculated LD50 values.
# Following synthesis, the compounds described in the Examples 23 to 75 above were purified, divided into equal aliquots and lyophilized for storage (desiccated at −20° C.). The exact material content was determined by HPLC-diode array detection, and the PDT efficacy was evaluated at two incubation times as described in the experimental section.
# [1] = 15 min incubation in the dark, read-out: IC50 15 min
# [2] = 3 h incubation in the dark, read-out: IC50 3 hours
compound,measurement,setting,value
"CC[C@H]1C2=NC(=Cc3c(C(C)=O)c(C)c4[n]3[Pd][n]3c(c(C)c(C(=O)NCCN5CCOCC5)c3=C(CC(=O)OC)C3=NC(=C4)[C@@H](C)[C@@H]3CCC(=O)O)=C2)[C@@H]1C [Compound 29, Palladium 3^1-oxo-15-methoxycarbonylmethyl-Rhodobacteriochlorin-13^1-(2-morpholino-N-ethyl)amide]",IC50,[1],1900 nM
same,IC50,[2],1900 nM
"CC[C@H]1C2=NC(=Cc3c(C(C)=O)c(C)c4[n]3[Pd][n]3c(c(C)c(C(=O)NCCN(C)C)c3=C(CC(=O)OC)C3=NC(=C4)[C@@H](C)[C@@H]3CCC(=O)O)=C2)[C@@H]1C [Compound 25, Palladium 3^1-oxo-15-methoxycarbonylmethyl-Rhodobacteriochlorin-13^1-(2-N^2-dimethylaminoethyl)amide]",IC50,[1],1100 nM
same,IC50,[2],750 nM
Palladium 3^1-oxo-15-methoxycarbonylmethyl-Rhodobacteriochlorin-13^1-(2-N^2-dimethylaminoethyl)amide-17^3-(2-(2-hydroxyethylamino)ethyl)amide [Compound 70],IC50,[1],550 nM
same,IC50,[2],160 nM
"CC[C@H]1C2=NC(=Cc3c(C(C)=O)c(C)c4[n]3[Pd][n]3c(c(C)c(C(=O)NCC(O)CO)c3=C(CC(=O)OC)C3=NC(=C4)[C@@H](C)[C@@H]3CCC(=O)NCCNCCN)=C2)[C@@H]1C (stereo partly shown) [Compound 51, Palladium 3^1-oxo-15-methoxycarbonylmethyl-Rhodobacteriochlorin-13^1-(2,3-dihydroxypropyl)amide-17^3-(2-[(2-aminoethyl)amino]ethyl)amide]",IC50,[1],780 nM
same,IC50,[2],400 nM
"CCC1c2cc3[n-]c(c(CC(=O)OC)c4nc(cc5[n-]c(cc(n2)C1C)c(C(C)=O)c5C)C(C)C4CCC(=O)NCCN1CCNCC1)c(C(=O)NCCN1CCNCC1)c3C.[Pd+2] (stereo not shown) [Compound 41, Palladium 3^1-oxo-15-methoxycarbonylmethyl-Rhodobacteriochlorin-13^1, 17^3-di(2-piperazino-N-ethyl)amide]",IC50,[1],1130 nM
same,IC50,[2],460 nM
"CC[C@H]1C2=NC(=Cc3c(C(C)=O)c(C)c4[n]3[Pd][n]3c(c(C)c(C(=O)NCC(O)CO)c3=C(CC(=O)OC)C3=NC(=C4)[C@@H](C)[C@@H]3CCC(=O)NCCN3CCNCC3)=C2)[C@@H]1C (stereo partly shown) [Compound 54, Palladium 3^1-oxo-15-methoxycarbonylmethyl-Rhodobacteriochlorin-13^1-(2,3-dihydroxypropyl)amide-17^3-(2-piperazino-N-ethyl)amide]",IC50,[1],750 nM
same,IC50,[2],270 nM
"CC[C@H]1C2=NC(=Cc3c(C(C)=O)c(C)c4[n]3[Pd][n]3c(c(C)c(C(=O)NCC(O)CO)c3=C(CC(=O)OC)C3=NC(=C4)[C@@H](C)[C@@H]3CCC(=O)NCCN3CCOCC3)=C2)[C@@H]1C (stereo partly shown) [Compound 53, Palladium 3^1-oxo-15-methoxycarbonylmethyl-Rhodobacteriochlorin-13^1-(2,3-dihydroxypropyl)amide-17^3-(2-morpholino-N-ethyl)amide]",IC50,[1],2000 nM
same,IC50,[2],900 nM
"CC[C@H]1C2=NC(=Cc3c(C(C)=O)c(C)c4[n]3[Pd][n]3c(c(C)c(C(=O)NCCNCCN(CC)CC)c3=C(CC(=O)OC)C3=NC(=C4)[C@@H](C)[C@@H]3CCC(=O)O)=C2)[C@@H]1C [Compound 31, Palladium 3^1-oxo-15-methoxycarbonylmethyl-Rhodobacteriochlorin-13^1-(2-[(2-N^2-diethylaminoethyl)amino]ethyl)amide]",IC50,[1],2600 nM
same,IC50,[2],600 nM
"CCC1C2=Cc3c(C)c(C(=O)NCCN)c4[n]3[Pd][n]3c(c(C)c(C(C)=O)c3=CC(=N2)C1C)=CC1=NC(=C4CC(=O)OC)C(CCC(=O)NCC(O)CO)C1C (stereo not shown) [Compound 48, Palladium 3^1-oxo-15-methoxycarbonylmethyl-Rhodobacteriochlorin-13^1-(2-aminoethyl)amide-17^3-(2,3-dihydroxypropyl) amide]",IC50,[1],600 nM
same,IC50,[2],200 nM
"CC[C@H]1C2=NC(=Cc3c(C(C)=O)c(C)c4[n]3[Pd][n]3c(c(C)c(C(=O)NCCN5CCOCC5)c3=C(CC(=O)OC)C3=NC(=C4)[C@@H](C)[C@@H]3CCC(=O)NCCN3CCOCC3)=C2)[C@@H]1C [Compound 40, Palladium 3^1-oxo-15-methoxycarbonylmethyl-Rhodobacteriochlorin-13^1, 17^3-di(2-morpholino-N-ethyl)amide]",IC50,[1],700 nM
same,IC50,[2],350 nM
"CC(=O)O.CC[C@H]1C2=NC(=Cc3c(C(C)=O)c(C)c4[n]3[Pd][n]3c(c(C)c(C(=O)NCCCCN)c3=C(CC(=O)OC)C3=NC(=C4)[C@@H](C)[C@@H]3CCC(=O)NCC(O)CO)=C2)[C@@H]1C (stereo partly shown) [Compound 61, Palladium 3^1-oxo-15-methoxycarbonylmethyl-Rhodobacteriochlorin-13^1-(4-aminobutyl)amide-17^3-(2,3-dihydroxypropyl) amide]",IC50,[1],690 nM
same,IC50,[2],210 nM
"CC[C@H]1C2=NC(=Cc3c(C(C)=O)c(C)c4[n]3[Pd][n]3c(c(C)c(C(=O)NCCNCCN)c3=C(CC(=O)OC)C3=NC(=C4)[C@@H](C)[C@@H]3CCC(=O)O)=C2)[C@@H]1C [Compound 27, Palladium 3^1-oxo-15-methoxycarbonylmethyl-Rhodobacteriochlorin-13^1-(2-[(2-aminoethyl)amino]ethyl)amide]",IC50,[1],1500 nM
same,IC50,[2],450 nM
"CC(=O)O.CCNCCNC(=O)c1c(C)c2[n]3c1=C(CC(=O)OC)C1=NC(=Cc4c(C)c(C(C)=O)c([n]4[Pd]3)C=C3N=C(C=2)[C@H](CC)[C@H]3C)[C@@H](C)[C@@H]1CCC(=O)NCC(O)CO (stereo partly shown) [Compound 63, Palladium 3^1-oxo-15-methoxycarbonylmethyl-Rhodobacteriochlorin-13^1-(2-N-ethylaminoethyl)amide-17^3-(2,3-dihydroxypropyl)amide]",IC50,[1],660 nM
same,IC50,[2],210 nM
"CC[C@H]1C2=NC(=Cc3c(C(C)=O)c(C)c4[n]3[Pd][n]3c(c(C)c(C(=O)NCCCN(C)C)c3=C(CC(=O)OC)C3=NC(=C4)[C@@H](C)[C@@H]3CCC(=O)O)=C2)[C@@H]1C [Compound 26, Palladium 3^1-oxo-15-methoxycarbonylmethyl-Rhodobacteriochlorin-13^1-(3-N^2-dimethylaminopropyl)amide]",IC50,[1],1000 nM
same,IC50,[2],450 nM
"CCC1C2=Cc3c(C)c(C(=O)NCCNc4ccccn4)c4[n]3[Pd][n]3c(c(C)c(C(C)=O)c3=CC(=N2)C1C)=CC1=NC(=C4CC(=O)OC)C(CCC(=O)NCCNc2ccccn2)C1C (stereo not shown) [Compound 44, Palladium 3^1-oxo-15-methoxycarbonylmethyl-Rhodobacteriochlorin-13^1,17^3-di(2-N-(2′-pyridyl)aminoethyl)amide]",IC50,[1],1410 nM
same,IC50,[2],170 nM
"CCC1C2=Cc3c(C)c(C(=O)NCCNCCN(CC)CC)c4[n]3[Pd][n]3c(c(C)c(C(C)=O)c3=CC(=N2)C1C)=CC1=NC(=C4CC(=O)OC)C(CCC(=O)NCCNCCN(CC)CC)C1C (stereo not shown) [Compound 39, Palladium 3^1-oxo-15-methoxycarbonylmethyl-Rhodobacteriochlorin-13^1,17^3-di-(2-[(2-N^2-diethylaminoethyl)amino]ethyl) amide]",IC50,[1],2440 nM
same,IC50,[2],1100 nM
"CC[C@H]1C2=NC(=Cc3c(C(C)=O)c(C)c4[n]3[Pd][n]3c(c(C)c(C(=O)NCCCN(C)C)c3=C(CC(=O)OC)C3=NC(=C4)[C@@H](C)[C@@H]3CCC(=O)NCCCN(C)C)=C2)[C@@H]1C [Compound 37, Palladium 3^1-oxo-15-methoxycarbonylmethyl-Rhodobacteriochlorin-13^1, 17^3-di(3-N^2-dimethylaminopropyl)amide]",IC50,[1],750 nM
same,IC50,[2],210 nM
"CC[C@H]1C2=NC(=Cc3c(C(C)=O)c(C)c4[n]3[Pd][n]3c(c(C)c(C(=O)NCCCNCCCN)c3=C(CC(=O)OC)C3=NC(=C4)[C@@H](C)[C@@H]3CCC(=O)O)=C2)[C@@H]1C [Compound 32, Palladium 3^1-oxo-15-methoxycarbonylmethyl-Rhodobacteriochlorin-13^1-(3-[(3-aminopropyl)amino]propyl)amide]",IC50,[1],600 nM
same,IC50,[2],250 nM
same,PDT activity relative to compound 24,at both incubation times,4-5 times
Palladium 3^1-oxo-15-methoxycarbonylmethyl-Rhodobacteriochlorin-13^1-(2-N-dimethylaminoethyl)amide-17^3-(2-hydroxy ethyl)amide [Compound 65],IC50,[1],430 nM
same,IC50,[2],220 nM
Palladium 3^1-oxo-15-methoxycarbonylmethyl-Rhodobacteriochlorin-13^1-(2-N^2-dimethylaminoethyl)amide-17^3-(glycosyl) amide [Compound 75],IC50,[1],500 nM
same,IC50,[2],160 nM
Palladium 3^1-oxo-15-methoxycarbonylmethyl-Rhodobacteriochlorin-13^1-(2-N^2-dimethylaminoethyl)amide-17^3-((R)-2-hydroxypropyl)amide [Compound 68],IC50,[1],500 nM
same,IC50,[2],160 nM
